# Tests used:
# [1] = system: HUVEC; experiment: Anti-angiogenesis activity against HUVEC cells assessed as inhibition of tube formation at 2.5 to 20 uM measured after 3 hrs by fluorescence microscopic analysis; format: functional, cell-based; conditions: Homo sapiens, dose 2.5-20 µM, DDE = dose-dependent effect
# [2] = Cytotoxicity against HUVEC cells assessed as cell viability incubated for 24 hrs by MTT assay; format: toxicity, cell-based; conditions: human, read-out: Activity
smiles,measurement,setting,value
CCCC[C@@H](O)[C@H](O)/C=C/C=C/[C@@H]1CC[C@@H](O)[C@H](C)N1,Activity,[1],Dde
same,viability at 24 h,[2],≥ 90%

# — ChEMBL document CHEMBL5143592, “Angiogenesis-Inhibitory Piperidine Alkaloids from the Leaves of Microcos paniculata” (J Nat Prod, 2022)
